Measurements taken from ChEMBL document CHEMBL3045305, “Synthesis, anticancer and antibacterial activities of piperine analogs” (Med Chem Res, 2013).
Values after ≈ are worked out from the molar mass of the structure shown.

What was measured:
Type in all cases: functional
Staphylococcus aureus = test: Antibacterial activity against Staphylococcus aureus assessed as growth inhibition after 24 hr by two fold serial dilution method
Shigella dysenteriae = test: Antibacterial activity against Shigella dysenteriae assessed as growth inhibition after 24 hr by two-fold serial dilution method
Escherichia coli = test: Antibacterial activity against Escherichia coli assessed as growth inhibition after 24 hr by two-fold serial dilution method
Klebsiella pneumoniae = test: Antibacterial activity against Klebsiella pneumoniae assessed as growth inhibition after 24 hr by two-fold serial dilution method
Pseudomonas aeruginosa = test: Antibacterial activity against Pseudomonas aeruginosa assessed as growth inhibition after 24 hr by two-fold serial dilution method
Bacillus subtilis = test: Antibacterial activity against Bacillus subtilis assessed as growth inhibition after 24 hr by two fold serial dilution method
Salmonella typhi = test: Antibacterial activity against Salmonella enterica subsp. enterica serovar Typhi assessed as growth inhibition after 24 hr by two fold serial dilution method

| Structure (SMILES) | MIC (Staphylococcus aureus) [µg/mL] | MIC (Shigella dysenteriae) [µg/mL] | MIC (Escherichia coli) [µg/mL] | MIC (Klebsiella pneumoniae) [µg/mL] | MIC (Pseudomonas aeruginosa) [µg/mL] | MIC (Bacillus subtilis) [µg/mL] | MIC (Salmonella typhi) [µg/mL] |
| --- | --- | --- | --- | --- | --- | --- | --- |
| O=C(/C=C/C=C/c1ccc2c(c1)OCO2)Nc1ccc(Cl)cc1 | 200 (≈ 610 µM) | 200 (≈ 610 µM) | 100 (≈ 305 µM) | 300 (≈ 915 µM) | 200 (≈ 610 µM) | 500 (≈ 1530 µM) | 400 (≈ 1220 µM) |
| O=C(/C=C/C=C/c1ccc2c(c1)OCO2)N[C@@H](Cc1c[nH]c2ccccc12)C(=O)O | 300 (≈ 742 µM) | 300 (≈ 742 µM) | 400 (≈ 989 µM) | 200 (≈ 495 µM) | 200 (≈ 495 µM) | 400 (≈ 989 µM) | 200 (≈ 495 µM) |
| O=C(/C=C/C=C/c1ccc2c(c1)OCO2)Nc1ccc(Br)cc1 | 300 (≈ 806 µM) | 300 (≈ 806 µM) | 200 (≈ 537 µM) | 100 (≈ 269 µM) | 500 (≈ 1340 µM) | 500 (≈ 1340 µM) | 300 (≈ 806 µM) |
| O=C(/C=C/C=C/c1ccc2c(c1)OCO2)N[C@@H](Cc1ccccc1)C(=O)O | 400 (≈ 1090 µM) | 150 (≈ 411 µM) | 300 (≈ 821 µM) | 300 (≈ 821 µM) | 400 (≈ 1090 µM) | 400 (≈ 1090 µM) | 200 (≈ 547 µM) |
| O=C(/C=C/C=C/c1ccc2c(c1)OCO2)N[C@@H](Cc1cnc[nH]1)C(=O)O | 300 (≈ 844 µM) | 200 (≈ 563 µM) | 200 (≈ 563 µM) | 300 (≈ 844 µM) | 300 (≈ 844 µM) | 300 (≈ 844 µM) | 300 (≈ 844 µM) |
| CC1(C)S[C@@H]2[C@H](NC(=O)[C@H](N)c3ccccc3)C(=O)N2[C@H]1C(=O)O [AMPICILLIN] | 11 (≈ 31.5 µM) | 16 (≈ 45.8 µM) | 5 (≈ 14.3 µM) | 8 (≈ 22.9 µM) | 50 (≈ 143 µM) | 10 (≈ 28.6 µM) | 15 (≈ 42.9 µM) |
| O=C(/C=C/C=C/c1ccc2c(c1)OCO2)N1CCCCC1 [PIPERINE] | 300 (≈ 1050 µM) | 600 (≈ 2100 µM) | 300 (≈ 1050 µM) | 200 (≈ 701 µM) | 100 (≈ 350 µM) | 500 (≈ 1750 µM) | 200 (≈ 701 µM) |
